These results are taken from patent publication US7534894B2, “Biphenyloxy-acids” (Wyeth, priority 2003, dated 2009).

Usually inhibition stands for the percentage by which the read-out fell short of the control. As usually defined, the IC50 is the midpoint of a concentration-inhibition curve.

Experiment [1] deals with T1, recombinant human plasminogen activator inhibitor-1 (PAI-1) (Homo sapiens, UniProt P05121).
T1 construct: purchased Molecular Innovations, Royal Oak, Mich
Description: Primary Screen for the PAI-1 Inhibition (residual tPA activity, chromogenic substrate Spectrozyme-tPA). To be noted: 140 nM PAI-1, 70 nM tPA, pH 6.6; for inhibition at 25 µM: 25 μM test compound; for inhibition at 100 µM: 100 μM test compound. In kind it is biochemical. As to the method:
(§1) Test compounds are dissolved in DMSO at a final concentration of 10 mM, then diluted 101× in physiologic buffer. The inhibitory assay is initiated by the addition of the test compound (1-100 μM final concentration, maximum DMSO concentration of 0.2%) in a pH 6.6 buffer containing 140 nM recombinant human plasminogen activator inhibitor-1 (PAI-1; Molecular Innovations, Royal Oak, Mich.). Following a 1 hour incubation at room temperature, 70 nM of recombinant human tissue plasminogen activator (tPA) is added, and the combination of the test compound, PAI-1 and tPA is incubated for an additional 30 minutes. Following the second incubation, Spectrozyme-tPA (American Diagnostica, Greenwich, Conn.), a chromogenic substrate for tPA, is added and absorbance read at 405 nm at 0 and 60 minutes. Relative PAI-1 inhibition is equal to the residual tPA activity in the presence of the test compound and PAI-1. Control treatments include the complete inhibition of tPA by PAI-1 at the molar ratio employed (2:1), and the absence of any effect of the test compound on tPA alone.

Experiment [2] concerns the target T1, recombinant human plasminogen activator inhibitor-1 (PAI-1). Briefly: Kinetic IC50: modification of the Primary Screen for the PAI-1 Inhibition. Type of experiment: biochemical. As to the method:
as §1

Each structure is given as a SMILES string.

T1 sequence (P05121 24-402): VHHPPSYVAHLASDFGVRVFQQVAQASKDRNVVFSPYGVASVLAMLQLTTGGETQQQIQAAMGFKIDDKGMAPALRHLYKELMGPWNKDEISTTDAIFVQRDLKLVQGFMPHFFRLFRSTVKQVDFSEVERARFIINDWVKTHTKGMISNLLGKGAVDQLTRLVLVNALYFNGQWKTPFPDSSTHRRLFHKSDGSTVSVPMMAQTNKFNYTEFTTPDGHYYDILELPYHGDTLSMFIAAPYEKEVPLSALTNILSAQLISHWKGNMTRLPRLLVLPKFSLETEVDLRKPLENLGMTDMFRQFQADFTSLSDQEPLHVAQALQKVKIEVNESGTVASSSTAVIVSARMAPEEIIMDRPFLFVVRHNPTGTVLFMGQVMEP

Turning to `O=C(Nc1ccc(-c2cccc(OC(Cc3ccccc3)C(=O)O)c2)cc1)c1cccc2c1-c1ccccc1C2` (stereo not shown) [Compound 24, 2-({4′-[(9H-fluoren-4-ylcarbonyl)amino]-1,1′-biphenyl-3-yl}oxy)-3-phenylpropanoic acid], in experiment [1], the inhibition at 25 µM stood at 36% and the inhibition at 100 µM is 51%. The IC50 in experiment [2] worked out at 12.1 µM.

As for `O=C(O)C(Cc1ccccc1)Oc1cccc(-c2ccc(NC(=O)C3(c4ccccc4)CCCC3)cc2)c1` (stereo not shown) [Compound 25, 3-phenyl-2-[(4′-{[(1-phenylcyclopentyl)carbonyl]amino}-1,1′-biphenyl-3-yl)oxy]propanoic acid], in experiment [1], the inhibition at 25 µM worked out at 26% and the inhibition at 100 µM amounted to 74%. Also, the IC50 in experiment [2] worked out at 40.8 µM.

`O=C(O)C(Cc1ccccc1)Oc1cccc(-c2ccc(NC(=O)C3(c4ccc(Cl)cc4)CCCC3)cc2)c1` (stereo not shown) [Compound 26, 2-{[4′-({[1-(4-chlorophenyl)cyclopentyl]carbonyl}amino)-1,1′-biphenyl-3-yl]oxy}-3-phenylpropanoic acid]: in experiment [1], the inhibition at 25 µM amounted to 58% and the inhibition at 100 µM stood at 69%. Moreover, in experiment [2], the IC50 was 16.4 µM.

In the case of `CCCc1c(C(=O)Nc2ccc(-c3cccc(OC(Cc4ccccc4)C(=O)O)c3)cc2)cnn1-c1ccc(Cl)cc1` (stereo not shown) [Compound 27, 2-{[4′-({[1-(4-chlorophenyl)-5-propyl-1H-pyrazol-4-yl]carbonyl}amino)-1,1′-biphenyl-3-yl]oxy}-3-phenylpropanoic acid], in experiment [1], the inhibition at 25 µM stood at 20% and the inhibition at 100 µM was 63%. For the same molecule, in experiment [2], the IC50 came out at 7.8 µM.

As to `O=C(Nc1ccc(-c2cccc(OC(Cc3ccccc3)C(=O)O)c2)cc1)c1cc2cc(OCc3ccccc3)ccc2[nH]1` (stereo not shown) [Compound 28, 2-{[4′-({[5-(benzyloxy)-1H-indol-2-yl]carbonyl}amino)-1,1′-biphenyl-3-yl]oxy}-3-phenylpropanoic acid], in experiment [1], the inhibition at 25 µM was 27% and the inhibition at 100 µM turned out to be 70%. The half-inhibitory concentration (IC50) in experiment [2] came out at 7.41 µM.

Turning to `O=C(O)C(Cc1ccccc1)Oc1cccc(-c2ccc(NC(=O)C3(c4ccc(Cl)cc4)CC3)cc2)c1` (stereo not shown) [Compound 29, 2-{[4′-({[1-(4-chlorophenyl)cyclopropyl]carbonyl}amino)-1,1′-biphenyl-3-yl]oxy}-3-phenylpropanoic acid], in experiment [1], the inhibition at 25 µM turned out to be 31% and the inhibition at 100 µM came to 83%. Further, the IC50 in experiment [2] came to 31.2 µM.

Regarding `O=C(O)C(Cc1ccccc1)Oc1cccc(-c2ccc(NC(=O)C3(c4cccc(F)c4)CCCC3)cc2)c1` (stereo not shown) [Compound 30, 2-{[4′-({[1-(3-fluorophenyl)cyclopentyl]carbonyl}amino)-1,1′-biphenyl-3-yl]oxy}-3-phenylpropanoic acid], in experiment [1], the inhibition at 25 µM worked out at 23% and the inhibition at 100 µM was found to be 73%. In experiment [2], the IC50 was determined as 17.4 µM.

In the case of `O=C(O)C(Cc1ccccc1)Oc1ccc(-c2ccc(NC(=O)C3(c4ccccc4)CCCC3)cc2)cc1` (stereo not shown) [Compound 31, 3-phenyl-2-[(4′-{[(1-phenylcyclopentyl)carbonyl]amino}-1,1′-biphenyl-4-yl)oxy]Propanoic acid], in experiment [1], the inhibition at 25 µM was determined as 24% and the inhibition at 100 µM amounted to 51%. In experiment [2], the IC50 worked out at 31.1 µM.

Turning to `O=C(O)C(Cc1ccccc1)Oc1ccc(-c2ccc(NC(=O)C3(c4ccccc4)CC3)cc2)cc1` (stereo not shown) [Compound 32, 3-phenyl-2-[(4′-{[(1-phenylcyclopropyl)carbonyl]amino}-1,1′-biphenyl-4-yl)oxy]Propanoic acid], in experiment [1], the inhibition at 25 µM amounted to 15% and the inhibition at 100 µM stood at 78%. The half-inhibitory concentration (IC50) in experiment [2] turned out to be 4.04 µM.

In the case of `O=C(O)C(Cc1ccccc1)Oc1ccc(-c2ccc(NC(=O)C3(c4ccc(Cl)cc4)CC3)cc2)cc1` (stereo not shown) [Compound 33, 2-{[4′-({[1-(4-chlorophenyl)cyclopropyl]carbonyl}amino)-1,1′-biphenyl-4-yl]oxy}-3-phenylpropanoic acid], in experiment [1], the inhibition at 25 µM turned out to be 22% and the inhibition at 100 µM is 79%. The IC50 in experiment [2] is 13.9 µM.

In the case of `O=C(O)C(Cc1ccccc1)Oc1ccc(-c2ccc(NC(=O)C3(c4cccc(F)c4)CCCC3)cc2)cc1` (stereo not shown) [Compound 34, 2-{[4′-({[1-(3-fluorophenyl)cyclopentyl]carbonyl}amino)-1,1′-biphenyl-4-yl]oxy}-3-phenylpropanoic acid], in experiment [1], the inhibition at 25 µM is 33% and the inhibition at 100 µM is 70%. In addition, in experiment [2], the IC50 turned out to be 38.6 µM.

With `O=C(O)COc1ccc(-c2ccc(NC(=O)C3(c4ccc(Cl)cc4)CCC3)cc2)cc1` [Compound 35, {[4′-({[1-(4-chlorophenyl)cyclobutyl]carbonyl}amino)-1,1′-biphenyl-4-yl]oxy}acetic acid], in experiment [1], the inhibition at 25 µM was found to be 15% and the inhibition at 100 µM came to 80%. Besides, the IC50 in experiment [2] was determined as 39.3 µM.

Regarding `O=C(O)COc1ccc(-c2ccc(NC(=O)c3cc(-c4ccc(-c5ccccc5)cc4)oc3C(F)(F)F)cc2)cc1` [Compound 36, [(4′-{[5-(1,1′-biphenyl-4-yl)-2-(trifluoromethyl)-3-furoyl]amino}-1,1′-biphenyl-4-yl)oxy]acetic acid], in experiment [1], the inhibition at 25 µM worked out at 29% and the inhibition at 100 µM worked out at 75%. For the same molecule, the IC50 in experiment [2] stood at 18.3 µM.

In the case of `O=C(Nc1ccc(-c2cccc(OC(Cc3ccccc3)C(=O)O)c2)cc1)c1ccc(Oc2ccccc2)cc1` (stereo not shown) [Compound 37, 2-({4′-[(4-phenoxybenzoyl)amino]-1,1′-biphenyl-3-yl}oxy)-3-phenylpropanoic acid], in experiment [1], the inhibition at 25 µM was 13% and the inhibition at 100 µM is 65%. For the same molecule, the IC50 in experiment [2] turned out to be 18.1 µM.

Turning to `O=C(Nc1ccc(-c2cccc(OC(Cc3ccccc3)C(=O)O)c2)cc1)c1ccc(-c2ccc(Cl)cc2)s1` (stereo not shown) [Compound 38, 2-{[4′-({[5-(4-chlorophenyl)thien-2-yl]carbonyl}amino)-1,1′-biphenyl-3-yl]oxy}-3-phenylpropanoic acid], in experiment [1], the inhibition at 25 µM was determined as 5% and the inhibition at 100 µM was found to be 52%. The IC50 in experiment [2] amounted to 38.7 µM.

For the molecule `O=C(O)C(Cc1ccccc1)Oc1cccc(-c2ccc(NC(=O)C3(c4ccc(Cl)cc4)CCC3)cc2)c1` (stereo not shown) [Compound 39, 2-{[4′-({[1-(4-chlorophenyl)cyclobutyl]carbonyl}amino)-1,1′-biphenyl-3-yl]oxy}-3-phenylpropanoic acid], in experiment [1], the inhibition at 25 µM is 40% and the inhibition at 100 µM came out at 81%. Further, in experiment [2], the IC50 came out at 12 µM.

Take `O=C(Nc1ccc(-c2cccc(OC(Cc3ccccc3)C(=O)O)c2)cc1)c1cc(-c2ccccc2Cl)oc1C(F)(F)F` (stereo not shown) [Compound 40, 2-[(4′-{[5-(2-chlorophenyl)-2-(trifluoromethyl)-3-furoyl]amino}-1,1′-biphenyl-3-yl)oxy]-3-phenylpropanoic acid]: in experiment [1], the inhibition at 25 µM turned out to be 31% and the inhibition at 100 µM was 90%. The IC50 in experiment [2] was found to be 10.2 µM.

For the molecule `CCCCc1oc2ccccc2c1C(=O)Nc1ccc(-c2cccc(OC(Cc3ccccc3)C(=O)O)c2)cc1` (stereo not shown) [Compound 41, 2-[(4′-{[(2-butyl-1-benzofuran-3-yl)carbonyl]amino}-1,1′-biphenyl-3-yl)oxy]-3-phenylpropanoic acid], in experiment [1], the inhibition at 25 µM was determined as 30% and the inhibition at 100 µM stood at 95%. The half-maximal inhibitory concentration (IC50) in experiment [2] was 9.1 µM.

As for `O=C(Nc1ccc(-c2cccc(OC(Cc3ccccc3)C(=O)O)c2)cc1)c1cc(-c2ccc(-c3ccccc3)cc2)oc1C(F)(F)F` (stereo not shown) [Compound 42, 2-[(4′-{[5-(1,1′-biphenyl-4-yl)-2-(trifluoromethyl)-3-furoyl]amino}-1,1′-biphenyl-3-yl)oxy]-3-phenylpropanoic acid], in experiment [1], the inhibition at 25 µM was 35% and the inhibition at 100 µM is 57%. Besides, the IC50 in experiment [2] amounted to 18.6 µM.

Take `Cc1cc(C)c2c(c1C(=O)Nc1ccc(-c3cccc(OC(Cc4ccccc4)C(=O)O)c3)cc1)CC(C)(C)C2=O` (stereo not shown) [Compound 54, 3-phenyl-2-[(4′-{[(2,2,5,7-tetramethyl-1-oxo-2,3-dihydro-1H-inden-4-yl)carbonyl]amino}-1,1′-biphenyl-3-yl)oxy]propanoic acid]: in experiment [1], the inhibition at 25 µM was found to be 29% and the inhibition at 100 µM worked out at 85%.

In the case of `O=C(Nc1ccc(-c2ccc(OC(Cc3ccccc3)C(=O)O)cc2)cc1)c1ccc2ccccc2c1` (stereo not shown) [Compound 55, 2-{[4′-(2-naphthoylamino)-1,1′-biphenyl-4-yl]oxy}-3-phenylpropanoic acid], in experiment [1], the inhibition at 25 µM was 26% and the inhibition at 100 µM was found to be 53%.

As to `CCCCOc1ccc2cc(C(=O)Nc3ccc(-c4ccc(OC(Cc5ccccc5)C(=O)O)cc4)cc3)ccc2c1` (stereo not shown) [Compound 56, 2-({4′-[(6-butoxy-2-naphthoyl)amino]-1,1′-biphenyl-4-yl}oxy)-3-phenylpropanoic acid], in experiment [1], the inhibition at 100 µM turned out to be 53%.

As for `O=C(Nc1ccc(-c2ccc(OC(Cc3ccccc3)C(=O)O)cc2)cc1)c1sc2ccccc2c1Cl` (stereo not shown) [Compound 57, 2-[(4′-{[(3-chloro-1-benzothien-2-yl)carbonyl]amino}-1,1′-biphenyl-4-yl)oxy]-3-phenylpropanoic acid], in experiment [1], the inhibition at 25 µM was found to be 34% and the inhibition at 100 µM amounted to 58%.
